{"source": "patent US20070260088A1", "about": "“Calcium Trifluoroacetate for Preparing Antiangiogenetic Medicaments” (priority 2004, published 2007)", "key": {"[1]": {"tested_on": "VEGF-induced angiogenesis in Matrigel plugs", "test": "murine model of angiogenesis induced by subcutaneous implant of Matrigel containing VEGF", "assay_type": "in vivo, mouse", "conditions": "for reduction in angiogenesis (morphometric analysis, percentage of area covered by vessels): VEGF 40 ng/ml in Matrigel, plugs removed after 7 days, vs VEGF alone", "procedure": "The effect of calcium trifluoroacetate in angiogenesis was evidenced in a murine model of angiogenesis induced by a subcutaneous implant of Matrigel. Matrigel is liquid at 4° C. and solid at 37° C., so that a pro-angiogenetic stimulus can be mixed with Matrigel and inoculated. In this protocol, the selected angiogenetic factor was […], added to the Matrigel together with 16 U/ml heparin, as described in literature (Bussolati B, Altered angiogenesis and survival in human tumor-derived endothelial cells. FASEB J. 2003; Bussolati B, Vascular endothelial growth factor receptor-1 modulates vascular endothelial growth factor-mediated angiogenesis via nitric oxide. Am J Pathol. 2001).\nCalcium trifluoroacetate was administered intraperitoneally 30 minutes before Matrigel, then on alternate days (day 2, 4, 6), at a dose of 2 or 4 μg/mouse (0.2 mg/Kg). After 7 days, the animals were killed and the Matrigel plugs were removed for histological examination. Angiogenesis was evaluated by computer assisted morphometric analysis of the percentage of area covered by vessels.\nThis strong antiangiogenic effect could already be observed macroscopically and confirmed histologically."}, "[2]": {"tested_on": "endothelium proliferation", "test": "endothelium proliferation", "assay_type": "cell-based"}, "endothelial cells": {"tested_on": "endothelial cells", "test": "effect of endothelial growth factors on calcium entrance into single endothelial cells", "assay_type": "cell-based"}, "tumor growth": {"tested_on": "tumor growth", "conditions": "disclosed in EP 1 423 131; cited from earlier work"}, "solid tumor cells": {"tested_on": "solid tumor cells", "conditions": "disclosed in EP 1 423 131; cited from earlier work"}}}
{"smiles": "O=C([O-])C(F)(F)F.O=C([O-])C(F)(F)F.[Ca+2]", "note": "[calcium trifluoroacetate]", "values": [{"measurement": "reduction in angiogenesis (morphometric analysis, percentage of area covered by vessels)", "setting": "[1]; 2 μg/mouse intraperitoneally on alternate days", "value": "above 40%"}, {"measurement": "reduction in angiogenesis (morphometric analysis, percentage of area covered by vessels)", "setting": "[1]; 4 μg/mouse intraperitoneally on alternate days", "value": 80, "unit": "%"}, {"measurement": "effect of VEGF on angiogenesis in Matrigel plugs (macroscopic and histological)", "setting": "[1]; mice treated with calcium trifluoroacetate, VEGF 40 ng/ml", "value": "dramatically reduced"}, {"measurement": "action on endothelium proliferation", "setting": "[2]", "value": "evident inhibitory action"}, {"measurement": "effect of endothelial growth factors on calcium entrance into single endothelial cells", "setting": "endothelial cells", "value": "able to block, at least partly"}, {"measurement": "tumor growth in animal experimental models", "setting": "tumor growth", "value": "inhibit tumor growth"}, {"measurement": "in vitro cytotoxic activity on solid tumor cells", "setting": "solid tumor cells", "value": "cytotoxic activity"}]}
